Reference: US12116343B2, “Inhibitors of APOL1 and methods of using same” (Vertex Pharmaceuticals Incorporated, priority 2020, dated 2024)

Molecular target: T1, APOL1 G1 Protein (Homo sapiens, UniProt O14791, I384M/S342G)
T1 sequence (O14791 28-398 S342G/I384M): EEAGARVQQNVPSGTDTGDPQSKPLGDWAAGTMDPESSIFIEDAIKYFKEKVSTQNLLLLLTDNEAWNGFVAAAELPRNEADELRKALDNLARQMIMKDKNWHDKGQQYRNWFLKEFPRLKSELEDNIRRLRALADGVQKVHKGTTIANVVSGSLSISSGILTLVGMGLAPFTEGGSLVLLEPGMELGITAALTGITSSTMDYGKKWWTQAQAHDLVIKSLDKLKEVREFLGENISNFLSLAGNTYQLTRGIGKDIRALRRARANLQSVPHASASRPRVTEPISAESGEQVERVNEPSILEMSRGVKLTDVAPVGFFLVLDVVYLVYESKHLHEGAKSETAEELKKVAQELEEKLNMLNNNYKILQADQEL
Assay: Trypanosoma brucei brucei lysis assay using APOL1 recombinant protein (AlamarBlue viability)
Format: cell-based
Conditions: Trypanosoma brucei brucei lysis, recombinant APOL1, AlamarBlue; read-out: Trypanosoma Assay (IC50)
Excerpt: Trypanosoma brucei brucei is a blood stream parasite to which human, gorillas and baboon are immune due to the presence of the APOL1 protein in their HDL particles. The protein is uptaken by the parasite via the TbHpHb receptor located in its flagellar pocket and is bonded by the Hpr protein contained in the HDL particles which triggers the receptor endocytosis by the parasite.
Following endocytosis, the formed vesicle containing the HDL particle matures from early to late endosome, and subsequently to lysosome. The concomitant pH change in the lumen of the vesicle triggers the insertion of the APOL1 protein into the membrane of the late endosome/lysosome and hereby triggers lysosomal membrane premeabilisation and as a further downstream event, trypanosome lysis. Trypanosoma brucei brucei is sensitive to lysis by all three APOL1 variants (G0, G1, and G2).
The Trypanosoma brucei brucei lysis assay is a lysis assay of the parasite using recombinant APOL1 protein variant followed by a fluorescent detection method of viability by the addition of AlamarBlue reagent to the assay well, a general metabolic redox indicator (AlamarBlue assay).
Briefly, the AlamarBlue active compound, the resazurin, a blue, water soluble, non-toxic and cell permeable molecule, which can be followed by absorbance, is reduced by various metabolic pathways into resorufin, a red compound which can be followed by either absorbance or fluorescence. The assay allows the calculation of the percent viability (percent of living Trypanosomes remaining in each well) at the end of a lysis relative to the untreated condition by interpolation of fluorescent values (FLU) on a standard curve with a known amount of seeded trypanosome/well.
Trypanosoma brucei brucei (ATCC, Cat. No. PRA-382) • Lister 427 VSG 221 bloodstream form.
Thaw/Expansion Media (ATCC Medium 2834 Modified HMI-9 Medium)
Assay Media (No Phenol Red/No FBS): Make on Day of Use
Hypoxanthine Stock (100×)-9 (10×)
Equipment • El-Clip Tip pipette 12 channel adjustable 2-125 μL, Cat. No. 4672070BT • ThermoFisher MultiDrop 384, Cat. No. 5840300 • Multidrop • Agilent Bravo, Cat. No. G5409A • Bravo • SpectraMax M5
Assay Ready Plates (ARPs) • ARPs comes in two formats: • […] final top concentration with a 2.5 fold dilution down. • […] final top concentration with a 3 fold dilution down. • Both have a 10 point Dose response. • 0.1% DMSO final in the Black Assay Plate. • Compounds are diluted 1000 fold in the Black Assay Plate. • Each plate is designed for 14 compounds in duplicate. • In the final Black Assay Plate:
Trypanosoma brucei brucei Culture
Step 2, Day 4 • Centrifuge at 800×g for 5 minutes at room temperature. • Resuspend in 1 mL media. • Make a 1:25 fold dilution (10 μL/240 μL media). • Count on a hemocytometer (after adding parasites). • Let sit for 1-2 minutes for the parasites to settle. • Count should be approximately 100 viable motile parasites/16 grid or approximately 25×10^6 parasites/flask. • Passage the parasites by adding 1×10^6 parasites/T75 flask in 20 mL media. • Passage the parasites by adding 2.33×10^6 parasites/T175 flask in 46.6 mL media. • For every T75 flask should make enough for approximately 1.5×384 well assay plates. • For every T175 flask should make enough for approximately 3.8×384 well assay plates.
Step 3, Day 6 • Centrifuge at 800×g for 5 minutes. • Resuspend in 3 mL assay media (No phenol red, no FBS) per 75 starting flask. • Resuspend in 7 mL assay media (No phenol red, no FBS) per 175 flask • Make a 1:25 fold dilution. • Count by hemocytometer. • Every T75 flask set up should have approximately 75×10^6 parasites/flask (verify doubling time=8.7 hrs±1 hr). • Every T175 flask set up should have approximately 175×10^6 parasites/flask (verify doubling time=8.7 hrs±1 hr). • Require 46×10^6 parasites per 384 well plate (at 120,000 parasites per well). Protocol B […]

Row | SMILES | IC50 [nM]
1 | CC(C)CC(NC(=O)[C@H]1C[C@H](c2c(-c3ccc(F)cc3)[nH]c3c(F)cc(F)cc32)C1)C(N)=O (stereo partly shown) [Compound 30] | > 1000
2 | N#CC(CO)NC(=O)[C@H]1C[C@H](c2c(-c3ccc(F)cc3)[nH]c3c(F)cc(F)cc32)C1 (stereo partly shown) [Compound 201] | < 250
3 | Cc1cc(NC(=O)[C@H]2C[C@H](c3c(-c4ccc(F)cc4)[nH]c4c(F)cc(F)cc43)C2)no1 [Compound 17] | 250 to 1000
4 | O=C(NC[C@H]1CC[C@@H](CO)O1)[C@H]1C[C@H](c2c(-c3ccc(F)cc3)[nH]c3c(F)cc(F)cc32)C1 [Compound 189] | > 1000
5 | C[C@]1(NC(=O)[C@H]2C[C@H](c3c(-c4ccc(F)cc4)[nH]c4c(F)cc(F)cc43)C2)C[C@@H](O)C1 [Compound 211] | 250 to 1000
6 | O=C(N[C@@H]1CCC[C@H]1O)[C@H]1C[C@H](c2c(-c3ccc(F)cc3)[nH]c3c(F)cc(F)cc32)C1 [Compound 182] | > 1000
7 | O=C(NCCn1cccc1)[C@H]1C[C@H](c2c(-c3ccc(F)cc3)[nH]c3c(F)cc(F)cc32)C1 [Compound 34] | 250 to 1000
8 | CS(=O)(=O)NC(=O)[C@H]1C[C@H](c2c(-c3ccc(F)cc3)[nH]c3c(F)cc(F)cc32)C1 [Compound 213] | > 1000
9 | O=C([C@H]1C[C@H](c2c(-c3ccc(F)cc3)[nH]c3c(F)cc(F)cc32)C1)N1CCOC[C@@H]1CO [Compound 219] | < 250
10 | C[C@@H](O)CNC(=O)[C@H]1C[C@H](c2c(-c3ccc(F)cc3)[nH]c3c(F)cc(F)cc32)C1 [Compound 175] | 250 to 1000
11 | O=C([C@H]1C[C@H](c2c(-c3ccc(F)cc3)[nH]c3c(F)cc(F)cc32)C1)N1CCOC[C@H]1CO [Compound 217] | 250 to 1000
12 | CS(=O)(=O)CCNC(=O)[C@H]1C[C@H](c2c(-c3ccc(F)cc3)[nH]c3c(F)cc(F)cc32)C1 [Compound 40] | > 1000
13 | O=C(NC1CCOC1)[C@H]1C[C@H](c2c(-c3ccc(F)cc3)[nH]c3c(F)cc(F)cc32)C1 (stereo partly shown) [Compound 15] | 250 to 1000
14 | O=C([C@H]1C[C@H](c2c(-c3ccc(F)cc3)[nH]c3c(F)cc(F)cc32)C1)N1CC[C@H]1CO [Compound 206] | < 250
15 | O=C(NCCn1cnnc1)[C@H]1C[C@H](c2c(-c3ccc(F)cc3)[nH]c3c(F)cc(F)cc32)C1 [Compound 39] | > 1000
16 | C[C@H](O)[C@@H](CO)NC(=O)[C@H]1C[C@H](c2c(-c3ccc(F)cc3)[nH]c3c(F)cc(F)cc32)C1 [Compound 16] | < 250
17 | O=C(NCC1(O)COC1)[C@H]1C[C@H](c2c(-c3ccc(F)cc3)[nH]c3c(F)cc(F)cc32)C1 [Compound 185] | 250 to 1000
18 | O=C([C@H]1C[C@H](c2c(-c3ccc(F)cc3)[nH]c3c(F)cc(F)cc32)C1)N1CC(CO)C1 [Compound 223] | < 250
19 | Cc1noc(CNC(=O)[C@H]2C[C@H](c3c(-c4ccc(F)cc4)[nH]c4c(F)cc(F)cc43)C2)n1 [Compound 173] | < 250
20 | NC(=O)C(CO)NC(=O)[C@H]1C[C@H](c2c(-c3ccc(F)cc3)[nH]c3c(F)cc(F)cc32)C1 (stereo partly shown) [Compound 32] | < 250
21 | O=C(N[C@H]1CC[C@@H]1O)[C@H]1C[C@H](c2c(-c3ccc(F)cc3)[nH]c3c(F)cc(F)cc32)C1 [Compound 178] | 250 to 1000
22 | Cn1ccc(NC(=O)[C@H]2C[C@H](c3c(-c4ccc(F)cc4)[nH]c4c(F)cc(F)cc43)C2)n1 [Compound 22] | 250 to 1000
23 | O=C1N[C@H](CO)C[C@@H]1NC(=O)[C@H]1C[C@H](c2c(-c3ccc(F)cc3)[nH]c3c(F)cc(F)cc32)C1 [Compound 209] | > 1000

Row | SMILES | IC50 [nM]
24 | CC(CO)NC(=O)[C@H]1C[C@H](c2c(-c3ccc(F)cc3)[nH]c3c(F)cc(F)cc32)C1 (mixture of isomers) [Compound 13] | < 250
25 | CC1(CO)CCN1C(=O)[C@H]1C[C@H](c2c(-c3ccc(F)cc3)[nH]c3c(F)cc(F)cc32)C1 (mixture of isomers) [Compound 218] | < 250
26 | CC(C)C(CO)NC(=O)[C@H]1C[C@H](c2c(-c3ccc(F)cc3)[nH]c3c(F)cc(F)cc32)C1 (stereo partly shown) [Compound 29] | 250 to 1000
27 | O=C(NCC(O)CO)[C@H]1C[C@H](c2c(-c3ccc(F)cc3)[nH]c3c(F)cc(F)cc32)C1 (stereo partly shown) [Compound 14] | 250 to 1000
28 | O=C(NC(CO)C1CC1)[C@H]1C[C@H](c2c(-c3ccc(F)cc3)[nH]c3c(F)cc(F)cc32)C1 (stereo partly shown) [Compound 199] | 250 to 1000
29 | Cc1cc(CNC(=O)[C@H]2C[C@H](c3c(-c4ccc(F)cc4)[nH]c4c(F)cc(F)cc43)C2)on1 [Compound 37] | 250 to 1000
30 | Cc1cnc(NC(=O)[C@H]2C[C@H](c3c(-c4ccc(F)cc4)[nH]c4c(F)cc(F)cc43)C2)o1 [Compound 24] | > 1000
31 | CC[C@@H](CO)NC(=O)[C@H]1C[C@H](c2c(-c3ccc(F)cc3)[nH]c3c(F)cc(F)cc32)C1 [Compound 204] | < 250
32 | Cc1ccn(CCNC(=O)[C@H]2C[C@H](c3c(-c4ccc(F)cc4)[nH]c4c(F)cc(F)cc43)C2)n1 [Compound 35] | 250 to 1000
33 | Cn1cncc1CNC(=O)[C@H]1C[C@H](c2c(-c3ccc(F)cc3)[nH]c3c(F)cc(F)cc32)C1 [Compound 174] | 250 to 1000
34 | O=C1CN(C(=O)[C@H]2C[C@H](c3c(-c4ccc(F)cc4)[nH]c4c(F)cc(F)cc43)C2)CCN1 [Compound 228] | > 1000
35 | COC1CC1NC(=O)[C@H]1C[C@H](c2c(-c3ccc(F)cc3)[nH]c3c(F)cc(F)cc32)C1 (stereo partly shown) [Compound 18] | > 1000
36 | O=C(NCC(F)(F)F)[C@H]1C[C@H](c2c(-c3ccc(F)cc3)[nH]c3c(F)cc(F)cc32)C1 [Compound 33] | > 1000
37 | O=C(NC1(CO)CC(F)(F)C1)[C@H]1C[C@H](c2c(-c3ccc(F)cc3)[nH]c3c(F)cc(F)cc32)C1 [Compound 202] | < 250
38 | O=C(N[C@@H]1CCC[C@@H]1O)[C@H]1C[C@H](c2c(-c3ccc(F)cc3)[nH]c3c(F)cc(F)cc32)C1 [Compound 179] | 250 to 1000
39 | O=C(NCCn1cncn1)[C@H]1C[C@H](c2c(-c3ccc(F)cc3)[nH]c3c(F)cc(F)cc32)C1 [Compound 36] | < 250
40 | C[C@@H](CO)NC(=O)[C@H]1C[C@H](c2c(-c3ccc(F)cc3)[nH]c3c(F)cc(F)cc32)C1 [Compound 200] | < 250
41 | Cn1cc(CNC(=O)[C@H]2C[C@H](c3c(-c4ccc(F)cc4)[nH]c4c(F)cc(F)cc43)C2)cn1 [Compound 38] | 250 to 1000
42 | COC[C@@H]1CCN1C(=O)[C@H]1C[C@H](c2c(-c3ccc(F)cc3)[nH]c3c(F)cc(F)cc32)C1 [Compound 222] | < 250
43 | CC(C)(O)C(O)CNC(=O)[C@H]1C[C@H](c2c(-c3ccc(F)cc3)[nH]c3c(F)cc(F)cc32)C1 (stereo partly shown) [Compound 215] | > 1000
44 | NC(=O)[C@@H](CO)NC(=O)[C@H]1C[C@H](c2c(-c3ccc(F)cc3)[nH]c3c(F)cc(F)cc32)C1 [Compound 221] | < 250
45 | O=C1NCCC1CNC(=O)[C@H]1C[C@H](c2c(-c3ccc(F)cc3)[nH]c3c(F)cc(F)cc32)C1 (stereo partly shown) [Compound 208] | > 1000
46 | Cn1ncc(CNC(=O)[C@H]2C[C@H](c3c(-c4ccc(F)cc4)[nH]c4c(F)cc(F)cc43)C2)n1 [Compound 198] | < 250
